According to article PMC5664067, “Investigating the Interaction of Cyclic RGD Peptidomimetics with αVβ6 Integrin by Biochemical and Molecular Docking Studies” (Cancers, 2017):
Like-named read-outs stand apart in the source and are kept apart here.

Tests used:
[1] = biological target: T1, Recombinant human integrin αVβ6 receptor (Homo sapiens, UniProt P06756+P18564); test: Competitive solid-phase binding assay: inhibition of biotinylated fibronectin binding to isolated αVβ6 integrin; conditions: for IC50 (αVβ6)/IC50 (αVβ3): selectivity ratio; for αVβ6 IC50: 50% inhibition of biotinylated fibronectin (1 μg/mL) binding to isolated αVβ6, mean ± SD of triplicate determinations
T1 construct: purchased R&D Systems
Experimental: The assay was performed according to previously reported procedures with slight modifications.
Recombinant human integrin αVβ6 receptor (R&D Systems, Minneapolis, MN, USA) was diluted to 1.0 μg/mL in coating buffer containing 20 mM Tris-HCl (pH 7.4), 150 mM NaCl, 1 mM MnCl2, 2 mM CaCl2, and 1 mM MgCl2. An aliquot of diluted receptor (100 μL/well) was added to 96-well microtiter plates (Nunc MaxiSorp, Thermo Fisher Scientific, Roskilde, Denmark) and incubated overnight at 4 °C. The plates were incubated with blocking solution (coating buffer plus 1% bovine serum albumin) for additional 2 h at room temperature to block nonspecific binding. After washing twice with blocking solution, plates were incubated shaking in the dark for 3 h at room temperature, with various concentrations (10^−4–10^−11 M) of test compounds in the presence of 1 μg/mL biotinylated fibronectin (Molecular Innovations, Novi, MI, USA). Biotinylation was performed using an EZ-Link Sulfo-NHS-Biotinylation kit (Pierce, Rockford, IL, USA). After washing three times, the plates were incubated shaking for 1 h, at room temperature, with streptavidin-biotinylated peroxidase complex (Amersham Biosciences, Uppsala, Sweden). After washing 3 times with blocking solution, plates were incubated with 100 μL/well of Substrate Reagent Solution (R&D Systems) for 30 min shaking in the dark, before stopping the reaction with the addition of 50 μL/well 2N H2SO4. Absorbance at 415 nm was read in a SynergyTM HT Multi-Detection Microplate Reader (BioTek Instruments, Inc., Winooski, VT, USA). Each data point represents the average of triplicate wells; data analysis was carried out by nonlinear regression analysis with GraphPad Prism software (GraphPad Software, Inc., La Jolla, CA, USA). Each experiment was repeated in triplicate.

αVβ3 integrin [2] = biological target: T2, αVβ3 integrin (Homo sapiens, UniProt P05106+P06756); parameters: method as in PMID 22517378; conditions: 50% inhibition of biotinylated vitronectin binding to αVβ3; cited from earlier work
integrin αVβ6 = test system: integrin αVβ6; parameters: method as in PMID 28074920; conditions: immobilized LAP and soluble integrin; cited from earlier work
αVβ3 integrin [3] = biological target: T2, αVβ3 integrin; test: Inhibition of biotinylated vitronectin binding to isolated αVβ3 integrin; conditions: 50% inhibition of biotinylated vitronectin binding to isolated αVβ3; new RAD peptidomimetic tested for this paper
human endothelial cells = test system: human endothelial cells; parameters: method as in PMID 25053992; conditions: cited from earlier work
[4] = test system: FAK/Akt integrin-activated transduction signaling pathway; parameters: method as in PMID 25761230; conditions: human glioblastoma cells; cited from earlier work
different cancer cells = test system: different cancer cells; parameters: method as in PMID 25053992; conditions: cited from earlier work
human glioblastoma cells = test system: human glioblastoma cells; parameters: method as in PMID 25761230; conditions: cited from earlier work

T2 sequence (P06756 31-889 limits assumed): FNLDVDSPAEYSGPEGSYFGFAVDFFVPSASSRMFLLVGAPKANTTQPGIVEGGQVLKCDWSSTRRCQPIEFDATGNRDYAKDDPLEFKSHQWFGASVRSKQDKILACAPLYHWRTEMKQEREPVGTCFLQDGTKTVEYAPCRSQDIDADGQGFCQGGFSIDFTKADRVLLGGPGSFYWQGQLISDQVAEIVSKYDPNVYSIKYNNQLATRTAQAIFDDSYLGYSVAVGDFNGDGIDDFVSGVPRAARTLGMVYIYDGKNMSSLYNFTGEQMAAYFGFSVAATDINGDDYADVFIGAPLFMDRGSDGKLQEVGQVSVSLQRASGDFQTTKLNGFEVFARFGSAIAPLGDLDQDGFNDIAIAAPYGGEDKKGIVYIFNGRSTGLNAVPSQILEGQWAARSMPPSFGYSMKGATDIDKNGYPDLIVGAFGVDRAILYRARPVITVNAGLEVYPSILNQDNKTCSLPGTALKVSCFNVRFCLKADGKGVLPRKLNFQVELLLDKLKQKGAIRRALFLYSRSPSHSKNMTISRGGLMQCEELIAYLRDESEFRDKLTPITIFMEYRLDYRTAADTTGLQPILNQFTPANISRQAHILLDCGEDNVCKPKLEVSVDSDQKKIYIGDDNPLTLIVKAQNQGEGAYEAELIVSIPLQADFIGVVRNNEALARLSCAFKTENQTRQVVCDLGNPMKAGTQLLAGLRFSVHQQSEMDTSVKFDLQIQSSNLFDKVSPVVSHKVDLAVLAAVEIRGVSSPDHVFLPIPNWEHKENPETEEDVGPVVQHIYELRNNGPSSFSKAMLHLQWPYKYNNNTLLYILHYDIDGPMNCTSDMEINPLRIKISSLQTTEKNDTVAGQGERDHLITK
T2 sequence (P06756 891-1048 partner limits assumed): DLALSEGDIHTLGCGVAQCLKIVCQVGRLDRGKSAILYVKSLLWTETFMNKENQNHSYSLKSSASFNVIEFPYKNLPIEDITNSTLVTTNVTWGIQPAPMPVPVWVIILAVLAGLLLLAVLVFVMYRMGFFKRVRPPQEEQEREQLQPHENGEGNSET
T2 sequence (P05106 27-788): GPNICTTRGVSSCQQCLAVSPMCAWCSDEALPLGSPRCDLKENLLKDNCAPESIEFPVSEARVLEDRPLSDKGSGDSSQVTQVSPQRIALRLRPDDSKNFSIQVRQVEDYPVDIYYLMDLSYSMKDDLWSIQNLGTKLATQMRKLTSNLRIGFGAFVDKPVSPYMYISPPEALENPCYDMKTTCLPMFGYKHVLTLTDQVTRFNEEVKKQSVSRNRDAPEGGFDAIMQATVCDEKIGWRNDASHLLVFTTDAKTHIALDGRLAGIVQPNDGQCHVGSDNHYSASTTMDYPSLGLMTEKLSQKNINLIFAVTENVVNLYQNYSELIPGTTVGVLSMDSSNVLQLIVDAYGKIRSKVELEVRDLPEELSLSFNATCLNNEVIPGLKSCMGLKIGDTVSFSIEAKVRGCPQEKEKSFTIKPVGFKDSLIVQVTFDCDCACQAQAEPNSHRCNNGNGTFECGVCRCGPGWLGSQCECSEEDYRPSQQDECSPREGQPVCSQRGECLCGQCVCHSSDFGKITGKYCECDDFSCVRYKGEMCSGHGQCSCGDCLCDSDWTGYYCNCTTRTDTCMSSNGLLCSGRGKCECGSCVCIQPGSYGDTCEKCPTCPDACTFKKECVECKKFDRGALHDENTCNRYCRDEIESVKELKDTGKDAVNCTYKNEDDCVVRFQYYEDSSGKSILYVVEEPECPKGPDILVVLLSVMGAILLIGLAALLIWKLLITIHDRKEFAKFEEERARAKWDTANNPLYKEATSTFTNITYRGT
T1 sequence (P06756 31-889 limits assumed): as the sequence (P06756 31-889 limits assumed) above
T1 sequence (P06756 891-992 partner limits assumed): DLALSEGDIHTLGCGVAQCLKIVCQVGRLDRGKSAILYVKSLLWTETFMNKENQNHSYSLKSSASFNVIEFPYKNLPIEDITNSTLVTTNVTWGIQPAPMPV
T1 sequence (P18564 22-707 limits assumed): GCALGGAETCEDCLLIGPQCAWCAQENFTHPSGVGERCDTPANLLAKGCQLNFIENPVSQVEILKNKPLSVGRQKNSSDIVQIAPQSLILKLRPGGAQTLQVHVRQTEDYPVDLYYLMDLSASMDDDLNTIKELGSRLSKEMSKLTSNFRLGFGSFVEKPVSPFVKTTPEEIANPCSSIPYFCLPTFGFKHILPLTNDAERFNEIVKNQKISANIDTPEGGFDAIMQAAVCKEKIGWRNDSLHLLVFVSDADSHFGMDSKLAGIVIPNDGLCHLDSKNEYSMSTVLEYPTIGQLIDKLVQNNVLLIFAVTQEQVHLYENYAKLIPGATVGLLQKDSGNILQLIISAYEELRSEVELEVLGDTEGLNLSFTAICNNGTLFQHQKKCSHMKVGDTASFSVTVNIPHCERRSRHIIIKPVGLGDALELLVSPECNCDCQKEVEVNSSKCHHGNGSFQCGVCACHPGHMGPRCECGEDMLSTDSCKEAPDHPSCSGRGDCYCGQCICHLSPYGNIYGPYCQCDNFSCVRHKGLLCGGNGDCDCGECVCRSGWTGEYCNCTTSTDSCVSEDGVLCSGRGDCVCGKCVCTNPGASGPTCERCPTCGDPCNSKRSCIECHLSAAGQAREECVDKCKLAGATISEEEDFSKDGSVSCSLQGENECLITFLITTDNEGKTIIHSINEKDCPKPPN

Compound | IC50 [1] | IC50 (αVβ6)/IC50 (αVβ3) [1] | further results
N=C(N)NCCC[C@@H]1NC(=O)C[C@@H]2C(=O)N[C@@H](CNC(=O)[C@H](CC(=O)O)NC(=O)CNC1=O)C(=O)N2Cc1ccccc1 [Compound 6] | 76.6 ± 4.2 nM | 37 | –
N=C(N)NCCC[C@@H]1NC(=O)C[C@@H]2C(=O)N(Cc3ccccc3)[C@@H](CNC(=O)[C@H](CC(=O)O)NC(=O)CNC1=O)C(=O)N2Cc1ccccc1 [Compound 7] | 2.3 ± 0.8 nM | – | αVβ3 IC50 (αVβ3 integrin [2]): subnanomolar; αVβ6 IC50 [1]: low nanomolar
CC(C)[C@H]1C(=O)N[C@@H](CCCNC(=N)N)C(=O)NCC(=O)N[C@@H](CC(=O)O)C(=O)N[C@H](Cc2ccccc2)C(=O)N1C [Compound 1a, cyclo[RGDf(N-Me)V]] | – | – | αVβ6 IC50 (integrin αVβ6): micromolar
CC1NC(=O)[C@H](CCCNC(=N)N)NC(=O)C[C@H]2NC(=O)[C@H](CNC(=O)[C@H](CC(=O)O)NC1=O)N(Cc1ccccc1)C2=O (some centres unmarked) [Compound 8, Cyclo[DKP-3-RAD]] | – | 3 | αVβ6 IC50 [1]: micromolar; αVβ3 IC50 (αVβ3 integrin [3]): micromolar
N=C(N)NCCC[C@@H]1NC(=O)C[C@H]2C(=O)N[C@H](CNC(=O)[C@H](CC(=O)O)NC(=O)CNC1=O)C(=O)N2Cc1ccccc1 [Compound 4] | 95.3 ± 4.9 nM | – | –
N=C(N)NCCC[C@@H]1NC(=O)C[C@H]2C(=O)N(Cc3ccccc3)[C@H](CNC(=O)[C@H](CC(=O)O)NC(=O)CNC1=O)C(=O)N2Cc1ccccc1 [Compound 5] | 173 ± 52.5 nM | – | IC50 (αVβ3 integrin [2]): 12.6 ± 5 nM
N=C(N)NCCC[C@@H]1NC(=O)C[C@H]2NC(=O)[C@H](CNC(=O)[C@H](CC(=O)O)NC(=O)CNC1=O)N(Cc1ccccc1)C2=O [Compound 3] | 95.6 ± 24.6 nM | 21 | inhibition of angiogenesis induced by pro-angiogenic growth factors (human endothelial cells): significantly inhibit; effects on the FAK/Akt integrin-activated transduction signaling pathway [4]: inhibitory effects; inhibition of cell adhesion (different cancer cells): significantly inhibit; effects on integrin-mediated cell infiltration processes (human glioblastoma cells): inhibitory effects
N=C(N)NCCC[C@@H]1NC(=O)C[C@@H]2NC(=O)[C@@H](CNC(=O)[C@H](CC(=O)O)NC(=O)CNC1=O)N(Cc1ccccc1)C2=O [Compound 2] | 345 ± 1 nM | 108 | –
